Assay results published in ChEMBL document CHEMBL6096728, “Simultaneous Induction of Immunogenic Pyroptosis and PD-L1 Downregulation by One Single Photosensitizer for Synergistic Cancer Photoimmunotherapy” (J Med Chem, 2025).
Calls of active or inactive are those of the source. The calls are words filed in the database; no cut-off is given here.

Columns and labels:
[1] = Phototoxicity against mouse 4T1 cells preincubated for 24 hrs followed by light irradiation of 20 mW.cm/2 at 400 to 700nm for 10 mins under hypoxia condition by CCK-8 method; format: functional, cell-based; conditions: 4T1, light or radiation study
MDA-MB-231 [2] = test: Induction of cell death in human MDA-MB-231 cells assessed as increase in red fluorescence at 0.5 uM incubated for 24 hrs followed by light irradiation of 20 mW.cm/2 at 400 to 700nm for 10 mins by Calcein-AM/PI staining based analysis; format: functional
MDA-MB-231 [3] = test: Induction of cell death in human MDA-MB-231 cells assessed as decrease in green fluorescence at 0.5 uM incubated for 24 hrs followed by light irradiation of 20 mW.cm/2 at 400 to 700nm for 10 mins by Calcein-AM/PI staining based analysis; format: functional
4T1 [4] = test: Induction of cell death in mouse 4T1 cells assessed as increase in red fluorescence at 0.5 uM incubated for 24 hrs followed by light irradiation of 20 mW.cm/2 at 400 to 700nm for 10 mins by Calcein-AM/PI staining based analysis; format: functional
[5] = Phototoxicity against human MDA-MB-231 cells preincubated for 24 hrs followed by light irradiation of 20 mW.cm/2 at 400 to 700nm for 10 mins under hypoxia condition by CCK-8 method; format: functional, cell-based; conditions: MDA-MB-231, light or radiation study
4T1 [6] = test: Induction of cell death in mouse 4T1 cells assessed as decrease in green fluorescence at 0.5 uM incubated for 24 hrs followed by light irradiation of 20 mW.cm/2 at 400 to 700nm for 10 mins by Calcein-AM/PI staining based analysis; format: functional

For CCN(CC)c1ccc2nc3c4ccccc4c(=O)cc-3oc2c1 [NILE RED], the IC50 [1] was over 10 µM, the Activity (MDA-MB-231 [2]) was “inactive” and the Activity (MDA-MB-231 [3]) was “inactive”. The Activity (4T1 [4]) was “inactive”, the IC50 [5] was over 10 µM and the Activity (4T1 [6]) was “inactive”.
